Results taken from patent US20250332178A1, “METHODS OF TREATING MYCOBACTERIAL INFECTIONS USING TETRACYCLINE COMPOUNDS” (priority 2018, published 2025).
≈ marks a conversion by molar mass, not a printed value. Read-outs that look alike come from different tables or passages of the source.

Tests used:
[1] = test system: rapid-growing mycobacteria (RGM) isolates; assay: MIC (CLSI broth dilution), all RGM isolates; assay type: cell-based, nontuberculous mycobacteria; details: all 50 RGM isolates
M. abscessus complex = assay: MIC (CLSI broth dilution), RGM isolates; assay type: cell-based; details: Mycobacteroides abscessus, read-out: MIC
M. chelonae = assay: MIC (CLSI broth dilution), RGM isolates; assay type: cell-based; details: Mycobacteroides chelonae, read-out: MIC
M. fortuitum group = assay: MIC (CLSI broth dilution), RGM isolates; assay type: cell-based; details: Mycolicibacterium fortuitum, read-out: MIC
M. immunogenum group = assay: MIC (CLSI broth dilution), RGM isolates; assay type: cell-based; details: M. immunogenum, read-out: MIC
M. mucogenium group = assay: MIC (CLSI broth dilution), RGM isolates; assay type: cell-based; details: read-out: MIC
M. smegmatis group = assay: MIC (CLSI broth dilution), RGM isolates; assay type: cell-based; details: Mycolicibacterium smegmatis, read-out: MIC
[2] = test system: slow-growing NTM isolates; assay: MIC (CLSI broth dilution), all slow-growing NTM isolates; assay type: cell-based, nontuberculous mycobacteria; details: all slow-growing NTM isolates
M. avium = assay: MIC (CLSI broth dilution), slow-growing NTM isolates; assay type: cell-based; details: Mycobacterium avium, read-out: MIC
M. chimaera = assay: as above; assay type: cell-based; details: read-out: MIC
M. intracellulare = assay: as above; assay type: cell-based; details: Mycobacterium intracellulare, read-out: MIC
M. arupense = assay: as above; assay type: cell-based; details: isolate 11, Other; read-out: MIC
M. simiae = assay: as above; assay type: cell-based; details: read-out: MIC

What does the source list for `CN(C)c1cc(CNCC(C)(C)C)c(O)c2c1C[C@H]1C[C@H]3[C@H](N(C)C)C(O)=C(C(N)=O)C(=O)[C@@]3(O)C(O)=C1C2=O` [OMC]?
MIC50 ([1]; read-out: MIC50): 0.25 µg/mL (≈ 0.449 µM); MIC90 ([1]; read-out: MIC90): 0.5 µg/mL (≈ 0.898 µM); MIC (M. abscessus complex; isolate 1, M. abscessus complex, erm gene type MAB30): 0.25 µg/mL (≈ 0.449 µM); MIC (M. abscessus complex; isolate 2, M. abscessus complex, erm gene type MAB30): 0.25 µg/mL (≈ 0.449 µM); MIC (M. abscessus complex; isolate 3, M. abscessus complex, erm gene type MAB30): 0.25 µg/mL (≈ 0.449 µM); MIC (M. abscessus complex; isolate 4, M. abscessus complex, erm gene type massiliense): 0.12 µg/mL (≈ 0.216 µM); MIC (M. abscessus complex; isolate 5, M. abscessus complex, erm gene type massiliense/subsp. abs hybrid): 0.25 µg/mL (≈ 0.449 µM); MIC (M. abscessus complex; isolate 6, M. abscessus complex, erm gene type Type 1 abscessus): 0.12 µg/mL (≈ 0.216 µM); MIC (M. abscessus complex; isolate 7, M. abscessus complex, erm gene type Type 1 abscessus): 0.12 µg/mL (≈ 0.216 µM); MIC (M. abscessus complex; isolate 8, M. abscessus complex, erm gene type Type 1 abscessus): 0.12 µg/mL (≈ 0.216 µM); MIC (M. abscessus complex; isolate 9, M. abscessus complex, erm gene type Type 1 abscessus): 0.12 µg/mL (≈ 0.216 µM); MIC (M. abscessus complex; isolate 10, M. abscessus complex, erm gene type Type 1 abscessus): 0.12 µg/mL (≈ 0.216 µM); MIC (M. abscessus complex; isolate 11, M. abscessus complex, erm gene type Type 6 abscessus): 0.12 µg/mL (≈ 0.216 µM); MIC (M. abscessus complex; isolate 12, M. abscessus complex, erm gene type Type 6 abscessus): 0.12 µg/mL (≈ 0.216 µM); MIC (M. abscessus complex; isolate 13, M. abscessus complex, erm gene type Type 6 abscessus): 0.25 µg/mL (≈ 0.449 µM); MIC (M. abscessus complex; isolate 14, M. abscessus complex, erm gene type Type 6 abscessus): 0.12 µg/mL (≈ 0.216 µM); MIC (M. abscessus complex; isolate 15, M. abscessus complex, erm gene type Type 7 abscessus): 0.12 µg/mL (≈ 0.216 µM); MIC (M. abscessus complex; isolate 16, M. abscessus complex, erm gene type Type 7 abscessus): 0.25 µg/mL (≈ 0.449 µM); MIC (M. abscessus complex; isolate 17, M. abscessus complex, erm gene type Type 8 abscessus): 0.06 µg/mL (≈ 0.108 µM); MIC (M. chelonae; isolate 18, M. chelonae): 0.12 µg/mL (≈ 0.216 µM); MIC (M. chelonae; isolate 19, M. chelonae): 0.25 µg/mL (≈ 0.449 µM); MIC (M. chelonae; isolate 20, M. chelonae): 0.12 µg/mL (≈ 0.216 µM); MIC (M. chelonae; isolate 21, M. chelonae): 0.12 µg/mL (≈ 0.216 µM); MIC (M. chelonae; isolate 22, M. chelonae): 0.25 µg/mL (≈ 0.449 µM); MIC (M. fortuitum group; isolate 23, M. fortuitum group, M. fortuitum): 0.12 µg/mL (≈ 0.216 µM); MIC (M. fortuitum group; isolate 24, M. fortuitum group, M. fortuitum): 0.12 µg/mL (≈ 0.216 µM); MIC (M. fortuitum group; isolate 25, M. fortuitum group, M. fortuitum): 0.12 µg/mL (≈ 0.216 µM); MIC (M. fortuitum group; isolate 26, M. fortuitum group, M. porcinum): 0.06 µg/mL (≈ 0.108 µM); MIC (M. fortuitum group; isolate 27, M. fortuitum group, M. porcinum): 0.12 µg/mL (≈ 0.216 µM); MIC (M. fortuitum group; isolate 28, M. fortuitum group, M. porcinum/M. boenickei): 0.25 µg/mL (≈ 0.449 µM); MIC (M. fortuitum group; isolate 29, M. fortuitum group, M. porcinum/M. boenickei): 0.25 µg/mL (≈ 0.449 µM); MIC (M. fortuitum group; isolate 30, M. fortuitum group, M. porcinum/M. boenickei): 0.12 µg/mL (≈ 0.216 µM); MIC (M. fortuitum group; isolate 31, M. fortuitum group, M. senegalense): 0.25 µg/mL (≈ 0.449 µM); MIC (M. fortuitum group; isolate 32, M. fortuitum group, M. senegalense): 0.12 µg/mL (≈ 0.216 µM); MIC (M. fortuitum group; isolate 33, M. fortuitum group, M. senegalense): 0.12 µg/mL (≈ 0.216 µM); MIC (M. fortuitum group; isolate 34, M. fortuitum group, M. senegalense): 0.12 µg/mL (≈ 0.216 µM); MIC (M. immunogenum group; isolate 35, M. immunogenum group): 0.5 µg/mL (≈ 0.898 µM); MIC (M. immunogenum group; isolate 36, M. immunogenum group): 0.25 µg/mL (≈ 0.449 µM); MIC (M. immunogenum group; isolate 37, M. immunogenum group): 0.5 µg/mL (≈ 0.898 µM); MIC (M. immunogenum group; isolate 38, M. immunogenum group): 0.5 µg/mL (≈ 0.898 µM); MIC (M. mucogenium group; isolate 39, M. mucogenicum group, M. mucogenicum): 0.25 µg/mL (≈ 0.449 µM); MIC (M. mucogenium group; isolate 40, M. mucogenicum group, M. mucogenicum): 0.25 µg/mL (≈ 0.449 µM); MIC (M. mucogenium group; isolate 41, M. mucogenicum group, M. mucogenicum): 1 µg/mL (≈ 1.8 µM); MIC (M. mucogenium group; isolate 42, M. mucogenicum group, M. mucogenicum): 0.5 µg/mL (≈ 0.898 µM); MIC (M. mucogenium group; isolate 43, M. mucogenicum group, M. phocaicum): 1 µg/mL (≈ 1.8 µM); MIC (M. mucogenium group; isolate 44, M. mucogenicum group, M. phocaicum): 0.5 µg/mL (≈ 0.898 µM); MIC (M. mucogenium group; isolate 45, M. mucogenicum group, M. phocaicum): 0.5 µg/mL (≈ 0.898 µM); MIC (M. mucogenium group; isolate 46, M. mucogenicum group, M. phocaicum): 1 µg/mL (≈ 1.8 µM); MIC (M. mucogenium group; isolate 47, M. mucogenicum group, M. phocaicum): 1 µg/mL (≈ 1.8 µM); MIC (M. mucogenium group; isolate 48, M. mucogenicum group, M. phocaicum): 0.25 µg/mL (≈ 0.449 µM); MIC (M. smegmatis group; isolate 49, M. smegmatis group, M. goodii): 0.06 µg/mL (≈ 0.108 µM); MIC (M. smegmatis group; isolate 50, M. smegmatis group, M. wolinskyi): 0.5 µg/mL (≈ 0.898 µM); MIC50 ([2]; read-out: MIC50): > 16 µg/mL; MIC90 ([2]; read-out: MIC90): > 16 µg/mL; MIC (M. avium; isolate 1, MAC): > 16 µg/mL; MIC (M. avium; isolate 2, MAC): > 16 µg/mL; MIC (M. avium; isolate 3, MAC): > 16 µg/mL; MIC (M. chimaera; isolate 4, MAC): > 16 µg/mL; MIC (M. chimaera; isolate 5, MAC): > 16 µg/mL; MIC (M. intracellulare; isolate 6, MAC): > 16 µg/mL; MIC (M. intracellulare; isolate 7, MAC): > 16 µg/mL; MIC (M. intracellulare; isolate 8, MAC): > 16 µg/mL; MIC (M. intracellulare; isolate 9, MAC): > 16 µg/mL; MIC (M. intracellulare; isolate 10, MAC): > 16 µg/mL; MIC (M. arupense): > 16 µg/mL; MIC (M. simiae; isolate 13, Other): > 16 µg/mL; MIC (M. simiae; isolate 14, Other): > 16 µg/mL; MIC (M. simiae; isolate 15, Other): > 16 µg/mL
